Like-named read-outs stand apart in the source and are kept apart here.
Legend:
ASGR = target: T1, ASGR (Mus musculus, UniProt P24721+P34927); experiment: blocking experiment, coinjection of N-acetylgalactosamine, biodistribution in BALB/c mice; settings: in vivo, 30 min p.i., 27.7 μmol N-acetylgalactosamine
T1 construct: from tissue; host or cells: liver and other organs of living healthy female BALB/c mice
T1 sequence (P34927 1-284): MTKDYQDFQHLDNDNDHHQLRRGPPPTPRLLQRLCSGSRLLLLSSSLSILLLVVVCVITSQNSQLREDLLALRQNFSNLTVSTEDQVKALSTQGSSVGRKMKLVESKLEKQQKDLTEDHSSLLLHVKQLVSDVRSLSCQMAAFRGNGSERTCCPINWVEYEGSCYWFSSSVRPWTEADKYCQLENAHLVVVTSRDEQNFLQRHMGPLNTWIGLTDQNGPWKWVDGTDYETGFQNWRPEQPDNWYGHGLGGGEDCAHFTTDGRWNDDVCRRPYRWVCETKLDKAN
T1 sequence (P24721 1-301): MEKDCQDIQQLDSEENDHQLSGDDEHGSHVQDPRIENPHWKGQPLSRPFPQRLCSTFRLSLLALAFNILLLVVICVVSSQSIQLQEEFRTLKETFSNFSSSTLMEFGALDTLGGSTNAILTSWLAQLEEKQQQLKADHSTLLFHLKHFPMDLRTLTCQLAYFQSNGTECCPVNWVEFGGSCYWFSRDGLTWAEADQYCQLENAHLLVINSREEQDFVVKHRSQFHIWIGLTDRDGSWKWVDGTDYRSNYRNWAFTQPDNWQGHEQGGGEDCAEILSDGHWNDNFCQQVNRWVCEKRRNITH
Method: Less liver uptake was found for [^68Ga]Ga-NODAGA-HexaLysan (55.5 ± 7.4% ID/g, 30 min p.i.) and least for [^68Ga]Ga-NODAGA-TriLysan (9.4 ± 2.0% ID/g, 30 min p.i.). […] However, an increasing activity accumulation in the intestine was found for [^68Ga]Ga-NODAGA-NonaLysan, [^68Ga]Ga-NODAGA-GalNAc-Nonalysan, and [^68Ga]Ga-NODAGA-HexaLysan over time. Nevertheless, liver-to-organ ratios were highest for [^68Ga]Ga-NODAGA-NonaLysan (Figure 3). Lower liver-to-organ ratios were found for the GalNAc derivative due to higher off-target binding in the pancreas, stomach, heart, muscle, lung, and femur. […] Coinjection of both nonamers with a large excess of N-acetylgalactosamine led to a statistically significant reduction of liver uptake indicating specific interactions of the tracers with their target (Figure 4). As a consequence of the reduced liver uptake also a reduction of the intestinal uptake was observed.
Figure 4 Data (% ID/g) from the blocking experiments using ^68Ga-labeled NODAGA-GalNAc-NonaLysan and NODAGA-NonaLysan in healthy BALB/c mice at 30 min p.i. Blocking was carried out using 27.7 μmol of N-acetylgalactosamine (**p ≤ 0.01; *p ≤ 0.05).

[1] = protein binding in human serum; format: in vitro ADME; settings: human, serum, read-out: protein binding (%) (converted)
Method: (§1) The ^68Ge/^68Ga generator, devices for analytical HPLC, semipreparative HPLC, mass spectrometry, radio-thin layer chromatography, gamma counter and animal models for biodistribution and imaging studies including the image reconstruction procedures were the same as described before.[22] Stability assays in PBS and human blood serum, protein binding as well as determination of log D values followed established protocols.[25] Binding affinities (IC50) of selected ligands were determined in an isolated receptor-based assay according to a previously published procedure with minor modifications.[22] Dilutions of nonradioactive complexes were made with PBS + 0.1% BSA (10^–5–10^–12 M). Preparation of [^125I]I-Asialoorosomucoid which serves as the radioactive standard ligand has been published recently.[21]

[2] = complex stability in human blood serum; format: in vitro ADME
Method: as §1

log D determination = format: physicochemical; settings: read-out: log D
Method: as §1

complex stability in PBS = format: physicochemical
Method: as §1

[3] = biodistribution in healthy BALB/c mice; settings: mouse, in vivo; for tissue uptake at 10 min: 10 min p.i.; for tissue uptake at 0.5 h: 30 min p.i.; for tissue uptake at 1 h: 60 min p.i.
Method: as §1
Animal experiments were performed in accordance with the Austrian animal experiments law (BGBl. I Nr. 114/2012) and the institution’s animal welfare standards as approved by the Austrian Federal Ministry of Education, Science and Research (BMBWF, 2022–0.311.708). Imaging experiments were conducted at Werner Siemens Imaging Center (Tübingen, Germany) according to the German animal welfare act as approved by the local authorities (R5/19 G, R09/21 G).
Figure 2 Biodistribution data (% ID/g) of ^68Ga-labeled NODAGA-GalNAc-NonaLysan, NODAGA-NonaLysan, NODAGA-HexaLysan, and NODAGA-TriLysan in healthy BALB/c mice at 10, 30, and 60 min p.i. (100 pmol, 1 MBq).

tissue uptake at 0.5 h (ASGR; read-out: Blood uptake): 0.4 ± 0.1 %ID/g
tissue uptake at 0.5 h (ASGR; read-out: Femur uptake): 0.7 ± 0.3 %ID/g
tissue uptake at 0.5 h (ASGR; read-out: Heart uptake): 0.8 ± 0.1 %ID/g
tissue uptake at 0.5 h (ASGR; read-out: Intestine uptake): 1.9 ± 0.4 %ID/g
tissue uptake at 0.5 h (ASGR; read-out: Kidneys uptake): 1.9 ± 0.4 %ID/g
tissue uptake at 0.5 h (ASGR; read-out: Liver uptake): 52.9 ± 3.2 %ID/g
tissue uptake at 0.5 h (ASGR; read-out: Lung uptake): 1.3 ± 0.3 %ID/g
tissue uptake at 0.5 h (ASGR; read-out: Muscle uptake): 1 ± 0.3 %ID/g
tissue uptake at 0.5 h (ASGR; read-out: Pancreas uptake): 1.5 ± 0.8 %ID/g
tissue uptake at 0.5 h (ASGR; read-out: Spleen uptake): 0.3 ± 0.02 %ID/g
tissue uptake at 0.5 h (ASGR; read-out: Stomach uptake): 2.4 ± 0.9 %ID/g
fraction unbound ([1]; 2 min): 0.858
fraction unbound ([1]; 30 min): 0.86
fraction unbound ([1]; 60 min): 0.826
fraction unbound ([1]; 120 min): 0.884
complex stability in serum (% intact ligand) ([2]; 2 min): 98.8 ± 0.1%
complex stability in serum (% intact ligand) ([2]; 30 min): 98.8%
complex stability in serum (% intact ligand) ([2]; 60 min): 99.0 ± 0.2%
complex stability in serum (% intact ligand) ([2]; 120 min): 98.8 ± 0.2%
logD (log D determination): -4.05
complex stability in PBS (% intact ligand) (complex stability in PBS; 2 min): 99.1%
complex stability in PBS (% intact ligand) (complex stability in PBS; 30 min): 99.0%
complex stability in PBS (% intact ligand) (complex stability in PBS; 60 min): 99.1%
complex stability in PBS (% intact ligand) (complex stability in PBS; 120 min): 99.1%
tissue uptake at 10 min ([3]; read-out: Blood uptake): 0.9 ± 0.5 %ID/g
tissue uptake at 10 min ([3]; read-out: Femur uptake): 0.9 ± 0.4 %ID/g
tissue uptake at 10 min ([3]; read-out: Heart uptake): 1.9 ± 0.5 %ID/g
tissue uptake at 10 min ([3]; read-out: Intestine uptake): 1.3 ± 0.3 %ID/g
tissue uptake at 10 min ([3]; read-out: Kidneys uptake): 3.6 ± 2.7 %ID/g
tissue uptake at 10 min ([3]; read-out: Liver uptake): 69.4 ± 5 %ID/g
tissue uptake at 10 min ([3]; read-out: Lung uptake): 1.5 ± 0.1 %ID/g
tissue uptake at 10 min ([3]; read-out: Muscle uptake): 1.3 ± 0.3 %ID/g
tissue uptake at 10 min ([3]; read-out: Pancreas uptake): 5 ± 0.5 %ID/g
tissue uptake at 10 min ([3]; read-out: Spleen uptake): 0.3 ± 0.1 %ID/g
tissue uptake at 10 min ([3]; read-out: Stomach uptake): 2.3 ± 0.4 %ID/g
tissue uptake at 0.5 h ([3]; read-out: Blood uptake): 0.3 ± 0.1 %ID/g
tissue uptake at 0.5 h ([3]; read-out: Femur uptake): 0.8 ± 0.1 %ID/g
tissue uptake at 0.5 h ([3]; read-out: Heart uptake): 1.7 ± 0.2 %ID/g
tissue uptake at 0.5 h ([3]; read-out: Intestine uptake): 3.5 ± 0.2 %ID/g
tissue uptake at 0.5 h ([3]; read-out: Kidneys uptake): 1.5 ± 0.2 %ID/g
tissue uptake at 0.5 h ([3]; read-out: Liver uptake): 77.6 ± 8 %ID/g
tissue uptake at 0.5 h ([3]; read-out: Lung uptake): 1.5 ± 0.2 %ID/g
tissue uptake at 0.5 h ([3]; read-out: Muscle uptake): 1.2 ± 0.1 %ID/g
tissue uptake at 0.5 h ([3]; read-out: Pancreas uptake): 5.6 ± 0.6 %ID/g
tissue uptake at 0.5 h ([3]; read-out: Spleen uptake): 0.3 ± 0.03 %ID/g
tissue uptake at 0.5 h ([3]; read-out: Stomach uptake): 2.7 ± 1 %ID/g
tissue uptake at 1 h ([3]; read-out: Blood uptake): 0.3 ± 0.1 %ID/g
tissue uptake at 1 h ([3]; read-out: Femur uptake): 0.9 ± 0.4 %ID/g
tissue uptake at 1 h ([3]; read-out: Heart uptake): 1.7 ± 0.1 %ID/g
tissue uptake at 1 h ([3]; read-out: Intestine uptake): 5.6 ± 0.03 %ID/g
tissue uptake at 1 h ([3]; read-out: Kidneys uptake): 1.3 ± 0.02 %ID/g
tissue uptake at 1 h ([3]; read-out: Liver uptake): 57.6 ± 0.7 %ID/g
tissue uptake at 1 h ([3]; read-out: Lung uptake): 1.2 ± 0.04 %ID/g
tissue uptake at 1 h ([3]; read-out: Muscle uptake): 1.1 ± 0.1 %ID/g
tissue uptake at 1 h ([3]; read-out: Pancreas uptake): 5 ± 0.6 %ID/g
tissue uptake at 1 h ([3]; read-out: Spleen uptake): 0.3 ± 0.1 %ID/g
tissue uptake at 1 h ([3]; read-out: Stomach uptake): 2.2 %ID/g
Compound: CC(=O)N[C@@H]1[C@@H](O)[C@@H](O)[C@@H](CO)O[C@H]1n1cc(CCCCC(=O)NCCCC[C@H](NC(=O)CCCNC(=O)CCC(C(=O)O)N2CCN(CC(=O)O)CCN(CC(=O)O)CC2)C(=O)NCC(=O)NCC(=O)N[C@@H](CCCCNC(=O)CCCCc2cn([C@@H]3O[C@H](CO)[C@H](O)[C@H](O)[C@H]3NC(C)=O)nn2)C(=O)NCC(=O)NCC(=O)N[C@@H](CCCCNC(=O)CCCCc2cn([C@@H]3O[C@H](CO)[C@H](O)[C@H](O)[C@H]3NC(C)=O)nn2)C(=O)NCC(=O)NCC(=O)N[C@@H](CCCCNC(=O)CCCCc2cn([C@@H]3O[C@H](CO)[C@H](O)[C@H](O)[C@H]3NC(C)=O)nn2)C(=O)NCC(=O)NCC(=O)N[C@@H](CCCCNC(=O)CCCCc2cn([C@@H]3O[C@H](CO)[C@H](O)[C@H](O)[C@H]3NC(C)=O)nn2)C(=O)NCC(=O)NCC(=O)N[C@@H](CCCCNC(=O)CCCCc2cn([C@@H]3O[C@H](CO)[C@H](O)[C@H](O)[C@H]3NC(C)=O)nn2)C(=O)NCC(=O)NCC(=O)N[C@@H](CCCCNC(=O)CCCCc2cn([C@@H]3O[C@H](CO)[C@H](O)[C@H](O)[C@H]3NC(C)=O)nn2)C(=O)NCC(=O)NCC(=O)N[C@@H](CCCCNC(=O)CCCCc2cn([C@@H]3O[C@H](CO)[C@H](O)[C@H](O)[C@H]3NC(C)=O)nn2)C(=O)NCC(=O)NCC(=O)N[C@@H](CCCCNC(=O)CCCCc2cn([C@@H]3O[C@H](CO)[C@H](O)[C@H](O)[C@H]3NC(C)=O)nn2)C(=O)NCC(=O)NCC(N)=O)nn1 (stereo partly drawn) [[^68Ga]Ga-NODAGA-GalNAc-NonaLysan, metal not drawn]

— paper PMC11881035, “^68Ga-Labeled Glycopeptides as Effective Tools for Liver Function Imaging” (Molecular Pharmaceutics, 2025)
